# Laboratory results published in PMC6222380 (Molecules : A Journal of Synthetic Chemistry and Natural …, 2018).
# Target: T1, CB2 receptor (Homo sapiens, UniProt P34972)
# T1 construct: transiently transfected with full-length human recombinant cDNA (OriGene, Rockville, MD, USA); host or cells: HEK293
# Assay: Competitive [3H]-CP55,940 radioligand binding assay, CB2
# Conditions: Table S1 preliminary screening; 10 μM
# Method: (§1) HEK293 cells were collected and transiently transfected with full-length human recombinant cDNA (OriGene, Rockville, MD, USA) containing expression clones to generate separate cell lines expressing either the CB1 or CB2 receptors (50 µg/mL) using electroporation (70 ms, single pulse, 150 volts). Transfected cells were grown in a 150 cm^2 Petri dish at 37 °C. G418 antibiotic solution (800 μg/mL) was used for selection. After selection, the HEK293 cells were further cultured until single colonies were obtained. The colonies with binding ratio (%) over 80% were chosen for binding and functional assays.
# (§2) Cell plasma membranes were prepared from cells with stable expression of CB1 or CB2 receptors. Cells grown to confluency were lysed and scraped in cold 50 mM Tris-HCl buffer at pH 7.4 and then centrifuged at 1000 rpm for 10 min at 4 °C. The supernatant was discarded while the pellets were resuspended in the same buffer. A Sonic Dismembrator Model 100 (Fisher Scientific, Pittsburgh, PA, USA) was used to homogenize the cell suspension for 30 s, which was then centrifuged at 3165 rpm for 10 min at 4 °C to separate the membranes and cytosolic fractions. The supernatant was saved, and the pellet underwent the suspension and homogenization process repeated two more times with the same conditions. The supernatants were combined and centrifuged at 13,650 rpm for 40 min at 4 °C. The pellet was re-suspended in cold 50 mM Tris-HCl buffer, aliquoted into 2 mL vials, and stored at −80 °C. The total membrane protein concentration was measured using a Pierce BCA Protein Assay Kit (Thermo Scientific, Rockford, IL, USA) as per the manufacturer’s protocol.
# (§3) Competitive binding assays were performed with a modified rapid filtration assay described by Ma et al. (2007) and Felder et al. (1992). […] The reaction was terminated via rapid vacuum filtration with cold Tris-HCl with 0.1% BSA through a 96-well UniFilter GF/C filter precoated with 0.5% Polyethyleneimine (PEI,) to separate bound and unbound radioligand. Filter plates were dried at 50 °C for at least 30 min, then 25 μL MicroScint-20 was applied to each filter and the plates were read on a TopCount NXT HTS Microplate Scintillation Counter (PerkinElmer, Waltham, MA). Filter bound radioactivity was recorded in counts per minute (CPM).
# (§4) The percent binding of the nonlabeled control to the receptor was calculated using total, specific, and nonspecific binding. […] All the experimental data were analyzed using a nonlinear regression curve fit model using GraphPad Prism 5.0 software (GraphPad Software, Inc., San Diego, CA, USA) and the Kd value was calculated. Each compound was tested in triplicate, unless stated otherwise.
# (§5) Percent displacement of radioligand was determined using the following equation:(1) % displacement of radioligand=100 –(compound.CPM−nonspecific.CPM/specific.CPM ×100)
# (§6) The IC50 and Ki values were calculated from a nonlinear regression curve fit model using GraphPad Prism 5.0 software (GraphPad Software, Inc., San Diego, CA, USA).
# T1 sequence (P34972 whole entry): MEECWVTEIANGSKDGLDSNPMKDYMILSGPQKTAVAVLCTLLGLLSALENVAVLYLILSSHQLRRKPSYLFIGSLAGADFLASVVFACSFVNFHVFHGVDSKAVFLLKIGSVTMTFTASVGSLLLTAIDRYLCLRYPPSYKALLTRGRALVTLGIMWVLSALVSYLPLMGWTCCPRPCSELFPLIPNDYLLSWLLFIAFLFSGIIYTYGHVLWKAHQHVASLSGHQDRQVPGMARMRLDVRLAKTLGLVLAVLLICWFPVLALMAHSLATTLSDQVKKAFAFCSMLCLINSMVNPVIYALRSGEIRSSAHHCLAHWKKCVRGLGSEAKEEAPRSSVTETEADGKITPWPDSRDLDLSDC
row,Compound,% displacement at 10 μM CB2
1,COc1ccc2c(ccn2CCC(=O)N[C@@H](Cc2c[nH]c3ccccc23)C(=O)O)c1 [Compound 10],17.3%
2,COc1ccc(-n2cc(C(=O)O)c3c2C(c2ccc(O)c(OC)c2)CC(=O)N3)cc1 (stereo not shown) [Compound 11],13.1%
3,O=c1[nH]n(C2CCCCCC2)c2nc3c(oc4c(O)c(O)ccc43)c(-c3ccc(O)cc3)c12 [Compound 13],37.4%
4,COC(=O)CC(c1ccc(O)cc1)c1oc(CSc2ccccc2)cc(=O)c1O (stereo not shown) [Compound 14],30%
5,Cc1ccc(COc2ccc(-c3nc(N)ncc3Oc3ccccc3Br)c(O)c2)cc1 [Compound 15],35.5%
6,Cc1noc(-c2ccc(O)cc2O)c1-c1ccc(Br)cc1 [Compound 16],40.2%
7,COC(=O)c1ccc(C=C2Oc3c(ccc(O)c3CN(CC(C)C)CC(C)C)C2=O)cc1 [Compound 17],35%

# Target: T2, human cannabinoid type 1 receptor (Homo sapiens, UniProt P21554)
# T2 construct: transiently transfected with full-length human recombinant cDNA (OriGene, Rockville, MD, USA); host or cells: HEK293
# Assay: CB1 GTPγS functional assay
# Type: biochemical
# Conditions: not given
# Method: The CB1 GTPγS functional assays were performed as previously described with some modifications. The assays were performed in […] of 50 mM Tris-HCl, pH = 7.4, 150 mM NaCl, 9 mM MgCl2, 0.2 mM EDTA, 1.4 mg/mL essentially fatty acid free BSA, 50 pM [^35S]-GTPγS ([^35S]-guanosine 5′-(γ-thio) triphosphate (PerkinElmer, Waltham, Massachusetts)), and 30 μg of protein per well harvested from HEK293 cells stably transfected with a plasmid overexpressing the human cannabinoid type 1 receptor. […] Plates were incubated for 90 min at 37 °C with gentle agitation in 96-well microplates, harvested with a PerkinElmer FilterMate Harvester through Unifilter GF/B filter plates (prewetted for 30 min with 0.3% BSA), and then washed 10× with […] of ice-cold 50 mM TrisHCl, pH 7.4. The filter plates were dried at 50 °C for at least 30 min. The radioactivity retained on the filters was quantified by adding […] MicroScint20 per well, incubating the filter plate overnight at room temperature to allow the radioactivity to solubilize into the scintillation fluid, and counting on a TopCount NXT Microplate Scintillation counter. Percent over basal was calculated in Microsoft Excel by subtracting the mean basal control from each value obtained and then dividing by the basal specific activity (mean basal control∓mean nonspecific binding control). Dose response curves (± SEM) of percent over basal versus log of the molar concentration of unlabeled ligand(s) were generated by a nonlinear curve fit model using GraphPad Prism 5.0 software.
# T2 sequence (P21554 whole entry): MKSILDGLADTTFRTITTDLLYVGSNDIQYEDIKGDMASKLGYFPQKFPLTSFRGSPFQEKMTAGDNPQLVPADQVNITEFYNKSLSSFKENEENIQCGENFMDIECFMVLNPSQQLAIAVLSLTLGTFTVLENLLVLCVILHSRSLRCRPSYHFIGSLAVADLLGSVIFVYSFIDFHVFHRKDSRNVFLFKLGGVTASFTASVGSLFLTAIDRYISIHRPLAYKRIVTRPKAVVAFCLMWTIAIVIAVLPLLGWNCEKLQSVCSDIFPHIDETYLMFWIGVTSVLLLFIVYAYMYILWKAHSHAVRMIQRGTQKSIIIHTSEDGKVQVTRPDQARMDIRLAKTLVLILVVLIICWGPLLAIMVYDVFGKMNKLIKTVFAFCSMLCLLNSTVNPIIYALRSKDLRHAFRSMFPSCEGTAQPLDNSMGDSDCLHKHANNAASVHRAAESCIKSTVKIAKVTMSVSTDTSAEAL
row,Compound,Functional phenotype at CB1 in GTPγS assay
1,Cc1noc(-c2ccc(O)cc2O)c1-c1ccc(Br)cc1 [Compound 16],inverse agonist

# Same assay, conditions: read-out: EC50 CB1 GTPγS
row,Compound,EC50
1,Cc1noc(-c2ccc(O)cc2O)c1-c1ccc(Br)cc1 [Compound 16],128 nM

# Target: T3, CB1 receptor (Homo sapiens, UniProt P21554)
# T3 construct: transiently transfected with full-length human recombinant cDNA (OriGene, Rockville, MD, USA); host or cells: HEK293
# Assay: Competitive [3H]-CP55,940 radioligand binding assay, CB1
# Conditions: 16 rescreened, data from Figure 4; up to solubility limit; read-out: IC50 ± SEM CB1 (rescreen)
# Method: as §1, §2, §3, §4, §5, §6
# T3 sequence (P21554 whole entry): as above
row,Compound,IC50
1,Cc1noc(-c2ccc(O)cc2O)c1-c1ccc(Br)cc1 [Compound 16],242 ± 70 nM

# Same assay, conditions: 16 rescreened, data from Figure 4; up to solubility limit; read-out: Ki ± SEM CB1 (rescreen)
row,Compound,Ki
1,Cc1noc(-c2ccc(O)cc2O)c1-c1ccc(Br)cc1 [Compound 16],121 ± 40 nM

# Same assay, conditions: Table 1; initial full-curve binding; superscript a = up to solubility limit; read-out: IC50 ± SEM CB1
row,Compound,IC50
1,Cc1noc(-c2ccc(O)cc2O)c1-c1ccc(Br)cc1 [Compound 16],20800 ± 4900 nM

# Same assay, conditions: Table 1 and text; initial full-curve binding; read-out: Ki ± SEM CB1
row,Compound,Ki
1,Cc1noc(-c2ccc(O)cc2O)c1-c1ccc(Br)cc1 [Compound 16],10400 ± 2500 nM

# Same assay, conditions: Table 2, analogs of compound 16; read-out: Ki ± SEM CB1
row,Compound,Ki
1,Oc1ccc(-c2onc(C(F)(F)F)c2-c2ccccc2)c(O)c1 [PCB-165],> 10000 nM

# Same assay, conditions: Table 2; 10 µM
row,Compound,% displacement at 10 μM CB1
1,Oc1ccc(-c2onc(C(F)(F)F)c2-c2ccccc2)c(O)c1 [PCB-165],33.0%

# Same assay, conditions: Table S1 preliminary screening; 10 μM
row,Compound,% displacement at 10 μM CB1
1,O=C(O)C(Cc1ccccc1)NCc1c(O)ccc2c(-c3ccccc3)cc(=O)oc12 (stereo not shown) [Compound 1],14.1%
2,COc1ccccc1NC(=O)C1CC(O)CN1C(=O)OCc1ccccc1 (stereo not shown) [Compound 4],13.9%
3,COc1ccc2c(ccn2CCC(=O)N[C@@H](Cc2c[nH]c3ccccc23)C(=O)O)c1 [Compound 10],30.2%
4,COc1ccc(-n2cc(C(=O)O)c3c2C(c2ccc(O)c(OC)c2)CC(=O)N3)cc1 (stereo not shown) [Compound 11],37.6%
5,O=c1[nH]n(C2CCCCCC2)c2nc3c(oc4c(O)c(O)ccc43)c(-c3ccc(O)cc3)c12 [Compound 13],23.1%
6,COC(=O)CC(c1ccc(O)cc1)c1oc(CSc2ccccc2)cc(=O)c1O (stereo not shown) [Compound 14],18.7%
7,Cc1noc(-c2ccc(O)cc2O)c1-c1ccc(Br)cc1 [Compound 16],61.8%

# Same assay, conditions: curves plateaued well before 100% receptor occupancy (Figure S2)
row,Compound,Further binding analysis at CB1 (binding curve outcome)
1,Cc1ccc(COc2ccc(-c3nc(N)ncc3Oc3ccccc3Br)c(O)c2)cc1 [Compound 15],no true affinity
2,COC(=O)c1ccc(C=C2Oc3c(ccc(O)c3CN(CC(C)C)CC(C)C)C2=O)cc1 [Compound 17],no true affinity

# Same assay, conditions: rescreen experiment, value printed in picture; read-out: CB1 Receptor Binding Ki (printed in Figure 4)
row,Compound,Ki
1,Cc1noc(-c2ccc(O)cc2O)c1-c1ccc(Br)cc1 [Compound 16],121 nM
